Read-outs that look alike come from different tables or passages of the source. Starred links: 1 amine or outer side, 2 acyl side, 3 side chain; linkers in the order of their positions; H or OH if unused. Residues, ends and D or L forms follow the SMILES beside them. Groups on a side chain read outwards from the residue. *: point of attachment. Sphinganine = CCCCCCCCCCCCCCC[C@@H](O)[C@H](CO)N*; CO = O=C([*:1])[*:2]
System: fully infectious HIV-1 HXB2
Conditions: for IC90: read-out: IC90 (nM), […]
[1] = fully infectious HIV-1 system (Table 2)
[2] = read-out: IC50 (nM), […], fully infectious HIV-1 system (Table 3)
[3] = fully infectious HIV-1 system (Table 3)
[4] = read-out: IC50 (inhibitory concentration at 50% infectivity), TZM-bl cells, fully contagious HXB2 HIV-1

| SMILES | IC50 [1] [nM] | further results |
| --- | --- | --- |
| CCCCCCCCCCCCCCC[C@@H](O)[C@H](CO)NC(=O)N[C@@H](CCC(=O)O)C(=O)N[C@@H](CC(C)C)C(=O)N[C@@H](CCC(N)=O)C(=O)N[C@@H](CC(C)C)C(=O)N[C@H](C(=O)N[C@@H](CCC(N)=O)C(=O)N[C@@H](Cc1c[nH]c2ccccc12)C(=O)N[C@@H](CCCCN)C(=O)N[C@H](C(=O)N[C@@H](CCCCN)C(=O)N[C@@H](CCC(N)=O)C(=O)N[C@@H](CC(C)C)C(=O)N[C@@H](CC(C)C)C(=O)N[C@@H](C)C(=O)N[C@@H](CCCNC(=N)N)C(=O)N[C@H](C(=O)N[C@@H](CC(C)C)C(=O)N[C@@H](CCCCN)C(N)=O)[C@@H](C)CC)[C@@H](C)CC)[C@@H](C)O [Sphing-N17mut (e, g) K, Sphinganine-ELQLTQWKIKQLLARILK] ({Sphinganine-CO}-ELQLTQWKIKQLLARILK-NH2) | 120 ± 30 |  |
| CCCCCCCCCCCCCCC[C@@H](O)[C@H](CO)NC(=O)N[C@@H](CC(C)C)C(=O)N[C@@H](CCC(N)=O)C(=O)N[C@@H](C)C(=O)N[C@@H](CCCNC(=N)N)C(=O)N[C@H](C(=O)N[C@@H](CC(C)C)C(=O)N[C@@H](C)C(=O)N[C@H](C(=O)N[C@@H](CCC(=O)O)C(=O)N[C@@H](CCCNC(=N)N)C(=O)N[C@@H](Cc1ccc(O)cc1)C(=O)N[C@@H](CC(C)C)C(=O)N[C@@H](CCCCN)C(=O)N[C@@H](CC(=O)O)C(=O)N[C@@H](CCC(N)=O)C(=O)N[C@@H](CCC(N)=O)C(=O)N[C@@H](CC(C)C)C(N)=O)C(C)C)[C@@H](C)CC [Sphing-ShN17, Sphinganine-LQARILAVERYLKDQQL] ({Sphinganine-CO}-LQARILAVERYLKDQQL-NH2) | 886 ± 102 |  |
| CC[C@H](C)[C@H](NC(=O)CNC(=O)[C@H](Cc1c[nH]c2ccccc12)NC(=O)[C@@H](NC(=O)[C@@H](NC(=O)[C@H](CC(C)C)NC(=O)[C@H](CCC(N)=O)NC(=O)[C@H](CC(C)C)NC(=O)[C@@H](N)CC(C)C)[C@@H](C)O)C(C)C)C(=O)N[C@@H](CCCCN)C(=O)N[C@@H](CCC(N)=O)C(=O)N[C@@H](CC(C)C)C(=O)N[C@@H](CCC(N)=O)C(=O)N[C@@H](C)C(=O)N[C@@H](CCCNC(=N)N)C(=O)N[C@H](C(=O)N[C@@H](CC(C)C)C(=O)N[C@@H](CCCCN)C(N)=O)[C@@H](C)CC [N17K, LLQLTVWGIKQLQARILK] (H-LLQLTVWGIKQLQARILK-NH2; C-terminus assumed) | > 4000 |  |
| CCCCCCCCCCCCCCC[C@@H](O)[C@H](CO)NC(=O)NCCCC[C@H](NC(=O)[C@H](CC(C)C)NC(=O)[C@@H](NC(=O)[C@H](CCCNC(=N)N)NC(=O)[C@H](C)NC(=O)[C@H](CC(C)C)NC(=O)[C@H](CC(C)C)NC(=O)[C@H](CCC(N)=O)NC(=O)[C@H](CCCCN)NC(=O)[C@@H](NC(=O)[C@H](CCCCN)NC(=O)[C@H](Cc1c[nH]c2ccccc12)NC(=O)[C@H](CCC(N)=O)NC(=O)[C@@H](NC(=O)[C@H](CC(C)C)NC(=O)[C@H](CCC(N)=O)NC(=O)[C@H](CC(C)C)NC(=O)[C@@H](N)CCC(=O)O)[C@@H](C)O)[C@@H](C)CC)[C@@H](C)CC)C(N)=O [N17mut (e, g) K-sphing, ELQLTQWKIKQLLARILK-Sphinganine] (H-ELQLTQWKIKQLLARILK([CO-Sphinganine])-NH2) | 120 ± 40 |  |
| CC[C@H](C)[C@H](NC(=O)CNC(=O)[C@H](Cc1c[nH]c2ccccc12)NC(=O)[C@@H](NC(=O)[C@@H](NC(=O)[C@H](CC(C)C)NC(=O)[C@H](CCC(N)=O)NC(=O)[C@H](CC(C)C)NC(=O)[C@@H](N)CC(C)C)[C@@H](C)O)C(C)C)C(=O)N[C@@H](CCCCN)C(=O)N[C@@H](CCC(N)=O)C(=O)N[C@@H](CC(C)C)C(=O)N[C@@H](CCC(N)=O)C(=O)N[C@@H](C)C(N)=O [N14, LLQLTVWGIKQLQA] (H-LLQLTVWGIKQLQA-NH2; C-terminus assumed) | > 4000 |  |
| CC[C@H](C)[C@H](NC(=O)[C@H](CCC(N)=O)NC(=O)[C@H](CC(C)C)NC(=O)[C@H](Cc1c[nH]c2ccccc12)NC(=O)[C@H](CC(C)C)NC(=O)[C@@H](NC(=O)[C@H](CCC(N)=O)NC(=O)[C@H](CC(C)C)NC(=O)[C@H](CCCNC(=N)N)NC(=O)[C@H](C)NC(=O)[C@@H](NC(=O)[C@H](CCCCN)NC(=O)[C@@H](N)CCC(N)=O)[C@@H](C)CC)[C@@H](C)O)C(=O)NCC(=O)N[C@H](C(=O)N[C@@H](CC(C)C)C(=O)N[C@@H](CC(C)C)C(N)=O)C(C)C [N17 scrambled, QKIARLQTLWLQIGVLL] (H-QKIARLQTLWLQIGVLL-NH2; C-terminus assumed) | > 4000 |  |
| CC[C@H](C)[C@H](NC(=O)[C@H](CC(C)C)NC(=O)[C@H](CO)NC(=O)[C@H](Cc1c[nH]cn1)NC(=O)[C@@H](NC(=O)[C@H](CC(C)C)NC(=O)[C@H](CO)NC(=O)[C@@H](NC(=O)[C@@H](N)Cc1ccc(O)cc1)[C@@H](C)O)[C@@H](C)CC)C(=O)N[C@@H](CCC(=O)O)C(=O)N[C@@H](CCC(=O)O)C(=O)N[C@@H](CO)C(=O)N[C@@H](CCC(N)=O)C(=O)N[C@@H](CC(N)=O)C(=O)N[C@@H](CCC(N)=O)C(=O)N[C@@H](CCC(N)=O)C(=O)N[C@@H](CCC(=O)O)C(=O)N[C@@H](CCCCN)C(=O)N[C@@H](CC(N)=O)C(=O)N[C@@H](CCCCN)C(N)=O [DP19K] (H-YTSLIHSLIEESQNQQEKNK-NH2; C-terminus assumed) | 2210 ± 507 |  |
| CCCCCCCCCCCCCCC[C@@H](O)[C@H](CO)NC(=O)NCCCC[C@H](NC(=O)[C@@H](NC(=O)[C@H](CCC(=O)O)NC(=O)[C@H](CCCNC(=N)N)NC(=O)[C@H](CC(=O)O)NC(=O)[C@H](Cc1c[nH]c2ccccc12)NC(=O)[C@H](CCC(=O)O)NC(=O)[C@H](CCSC)NC(=O)[C@H](Cc1c[nH]c2ccccc12)NC(=O)[C@@H](N)[C@@H](C)O)[C@@H](C)CC)C(N)=O [Truncated-Sphing, TWMEWDREIK-Sphinganine] (H-TWMEWDREIK([CO-Sphinganine])-NH2; N-terminus assumed) |  | IC50 [2]: 1330 ± 270 nM; IC90 [3]: 2480 ± 320 nM |
| CCCCCCCCCCCCCCC[C@@H](O)[C@H](CO)NC(=O)NCCCC[C@H](NC(=O)[C@H](CC(C)C)NC(=O)[C@@H](NC(=O)[C@H](CCCNC(=N)N)NC(=O)[C@H](C)NC(=O)[C@H](CCC(N)=O)NC(=O)[C@H](CC(C)C)NC(=O)[C@H](CCC(N)=O)NC(=O)[C@H](CCCCN)NC(=O)[C@@H](NC(=O)CNC(=O)[C@H](Cc1c[nH]c2ccccc12)NC(=O)[C@@H](NC(=O)[C@@H](NC(=O)[C@H](CC(C)C)NC(=O)[C@H](CCC(N)=O)NC(=O)[C@H](CC(C)C)NC(=O)[C@@H](N)CC(C)C)[C@@H](C)O)C(C)C)[C@@H](C)CC)[C@@H](C)CC)C(N)=O [N17K-sphing, LLQLTVWGIKQLQARILK-Sphinganine] (H-LLQLTVWGIKQLQARILK([CO-Sphinganine])-NH2) | 291 ± 102 | IC50 [4]: 287 nM |
| CCCCCCCCCCCCCCC[C@@H](O)[C@H](CO)NC(=O)N[C@@H](CC(C)C)C(=O)N[C@@H](CC(C)C)C(=O)N[C@@H](CCC(N)=O)C(=O)N[C@@H](CC(C)C)C(=O)N[C@H](C(=O)N[C@H](C(=O)N[C@@H](Cc1c[nH]c2ccccc12)C(=O)NCC(=O)N[C@H](C(=O)N[C@@H](CCCCN)C(=O)N[C@@H](CCC(N)=O)C(=O)N[C@@H](CC(C)C)C(=O)N[C@@H](CCC(N)=O)C(=O)N[C@@H](C)C(=O)N[C@@H](CCCNC(=N)N)C(=O)N[C@H](C(=O)N[C@@H](CC(C)C)C(=O)N[C@@H](CCCCN)C(N)=O)[C@@H](C)CC)[C@@H](C)CC)C(C)C)[C@@H](C)O [Sphing-N17K, Sphinganine-LLQLTVWGIKQLQARILK] ({Sphinganine-CO}-LLQLTVWGIKQLQARILK-NH2) | 118 ± 18 | IC50 [4]: 116 nM |
| CC[C@H](C)[C@H](NC(=O)[C@H](CCCNC(=N)N)NC(=O)[C@H](C)NC(=O)[C@H](CC(C)C)NC(=O)[C@H](CC(C)C)NC(=O)[C@H](CCC(N)=O)NC(=O)[C@H](CCCCN)NC(=O)[C@@H](NC(=O)[C@H](CCCCN)NC(=O)[C@H](Cc1c[nH]c2ccccc12)NC(=O)[C@H](CCC(N)=O)NC(=O)[C@@H](NC(=O)[C@H](CC(C)C)NC(=O)[C@H](CCC(N)=O)NC(=O)[C@H](CC(C)C)NC(=O)[C@@H](N)CCC(=O)O)[C@@H](C)O)[C@@H](C)CC)C(=O)N[C@@H](CC(C)C)C(=O)N[C@@H](CCCCN)C(N)=O [N17mut (e, g) K, ELQLTQWKIKQLLARILK] (H-ELQLTQWKIKQLLARILK-NH2; C-terminus assumed) | > 4000 |  |
| CCCCCCCCCCCCCCC[C@@H](O)[C@H](CO)NC(=O)NCCCC[C@H](NC(=O)[C@H](CC(N)=O)NC(=O)[C@H](Cc1c[nH]c2ccccc12)NC(=O)[C@H](CCSC)NC(=O)[C@H](Cc1ccc(O)cc1)NC(=O)[C@H](CC(N)=O)NC(=O)[C@@H](NC(=O)[C@H](CC(=O)O)NC(=O)[C@H](CCC(=O)O)NC(=O)[C@H](CCCNC(=N)N)NC(=O)[C@H](Cc1c[nH]c2ccccc12)NC(=O)[C@@H](NC(=O)[C@H](CCC(=O)O)NC(=O)[C@@H](NC(=O)[C@@H](N)[C@@H](C)O)[C@@H](C)O)[C@@H](C)CC)[C@@H](C)O)C(N)=O [Scrambled-Sphing, TTEIWREDTNYMWNK-sphing] (H-TTEIWREDTNYMWNK([CO-Sphinganine])-NH2; N-terminus assumed) |  | IC50 [2]: 895 ± 70 nM; IC90 [3]: 6260 ± 3670 nM |
| CCCCCCCCCCCCCCC[C@@H](O)[C@H](CO)NC(=O)NCCCC[C@H](NC(=O)[C@@H](NC(=O)[C@H](Cc1ccc(O)cc1)NC(=O)[C@H](CC(N)=O)NC(=O)[C@H](CC(N)=O)NC(=O)[C@@H](NC(=O)[C@H](CCC(=O)O)NC(=O)[C@H](CCCNC(=N)N)NC(=O)[C@H](CC(=O)O)NC(=O)[C@H](Cc1c[nH]c2ccccc12)NC(=O)[C@H](CCC(=O)O)NC(=O)[C@H](CCSC)NC(=O)[C@H](Cc1c[nH]c2ccccc12)NC(=O)[C@@H](NC(=O)[C@@H](N)[C@@H](C)O)[C@@H](C)O)[C@@H](C)CC)[C@@H](C)O)C(N)=O [PBDK-Sphing, TTWMEWDREINNYTK-Sphinganine] (H-TTWMEWDREINNYTK([CO-Sphinganine])-NH2; N-terminus assumed) |  | IC50 [2]: 467 ± 140 nM; IC90 [3]: 1090 ± 100 nM |
| CC(C)C[C@H](NC(=O)[C@H](CCCNC(=N)N)NC(=O)[C@H](CCCNC(=N)N)NC(=O)[C@H](C)NC(=O)[C@H](CCC(N)=O)NC(=O)[C@H](CC(N)=O)NC(=O)[C@H](CCC(N)=O)NC(=O)[C@H](CCCCN)NC(=O)[C@H](CO)NC(=O)CNC(=O)[C@H](Cc1c[nH]c2ccccc12)NC(=O)[C@@H](NC(=O)[C@H](CO)NC(=O)[C@H](CC(C)C)NC(=O)[C@H](CCC(N)=O)NC(=O)[C@H](CCC(=O)O)NC(=O)[C@@H](N)CC(C)C)C(C)C)C(N)=O [N17mut (a, d), LEQLSVWGSKQNQARRL] (H-LEQLSVWGSKQNQARRL-NH2; C-terminus assumed) | > 4000 |  |

From patent US20150045291A1, “LIPOPEPTIDE CONJUGATES COMPRISING SPHINGOLIPID AND HIV GP41 DERIVED PEPTIDES” (priority 2012, published 2015)
